US20070072830A1, “Methods for treating diabetes” (Point Therapeutics, Inc., priority 2004, published 2007)
Where two headings read alike, the source gives them in different places.

Legend:
[1] = target: T1, soluble recombinant human DPP-IV (Homo sapiens, UniProt P27487); experiment: In vitro inhibition of recombinant soluble DPP-IV by amino boronic dipeptides; format: biochemical; settings: assayed at 3 minutes, 78 minutes and 16 hours after addition of Ala-Pro-AFC
T1 construct: immunoglobulin kappa light chain secretion signal (pSecTag2-B) (N, cleaved yes); made in house; host or cells: 293T cells, transient transfection; culture supernatant used unpurified
Description: Production of soluble recombinant human DPP-IV. Based on information on the N-terminus of serum DPP-IV (15), a truncated DPP-IV was engineered in which a signal/leader sequence was joined to the residue in DPP-IV corresponding to the N-terminus of serum DPP-IV to allow secretion. The cDNA encoding the desired truncated human DPP-IV dimer enzyme was engineered into the mammalian secretion vector pSecTag2 (Cat# V900-20, InVitrogen Corporation). The vector, available in A, B or C versions, representing three possible phases for gene fusion, contained an immunoglobulin-kappa light chain secretion signal followed by a selection of restriction sites for gene insertion. The fusion required engineering a restriction site upstream of the chosen fusion amino acid in the 5′ end of the DPP-IV dimer enzyme nucleic acid in phase with the chosen restriction site (Sfi I) in the vector secretion sequence. The chosen fusion amino acid in the 5′ end of the DPP-IV (Ser39) was 3′ of the trans-membrane anchoring domain. The pSecTag2 version B and its Sfi I restriction site was chosen for the fusion because it minimizes the additional N-terminal, vector-encoded residues in the mature secreted protein.
Construction of the fusion was as follows. First, total RNA was isolated from the Caco-2 colorectal carcinoma cell line (ATCC HTB-37) by standard Trizol/phenol /chloroform methodology. The purified RNA (approx. 2.5 μg in a 20 μl reaction) was used to make cDNA using oligo-dT primer and a commercial reverse transcription (RT) kit (InVitrogen). […] The following thermal cycler program was used: 94° C. for 45 sec. initial denaturation, then 30 cycles of 94° C., 10 sec.; 48° C., 6 sec.; 60° C., 4 min; followed by 5-min. extension at 72° C. after cycling.
DNA from the plasmid encoding DPP-IV dimer enzyme was prepared on an approximately 400 μg scale from overnight 30 ml cultures in Luria broth with 100 μg ampicillin per ml using a commercial kit (Qiagen Maxiprep Kit).
In vitro assay of enzymatic activity of recombinant soluble DPP-IV and inhibition by amino boronic dipeptides. The assay reaction mixture consisted of 135 μl 50 mM HEPES/Na buffer pH 7.6, 140 mM NaCl, 10-15 μl enzyme-containing culture supernatant, dipeptide substrate Ala-Pro-(7-amino-4-trifluoromethyl coumarin) (Ala-Pro-AFC; Enzyme System Products, Dublin, Calif.) at typically 0.1-1 mM added from a 100 or 400 mM stock in dimethyl formamide. The reaction mixture was incubated at room temperature, and production of the fluorescent AFC product was measured in a fluorometer (excitation, 400 nm; emission 505 nm), either by continuous monitoring or after termination with a one to one-tenth volume of 1-M sodium acetate, pH 4.5. Fluorometric reading were made with a […] Spectra Max GeminiXS capable of reading 96-well microtiter plates. The inhibitory activity of amino boronic dipeptides was investigated by preincubation of assay reaction mixtures with varying concentrations of each compound for 10 minutes before the addition of the substrate Ala-Pro-AFC.

Lewis rats = test system: Lewis rats
Experimental: (§1) Serum DPP-IV inhibition and observation of acute toxicity of amino boronic dipeptides in Lewis rats. […] After observations were completed or at the onset of a moribund state, humane euthanasia was performed by asphyxiation in 100% CO2.

serum KC/CXCL1 = experiment: Serum KC/CXCL1 levels in vivo in BALB/c mice; settings: 0.2-200 μg/mouse oral, 2 hours
Experimental: (§2) Assay ofserum DPP-IV inhibition and KC/CXCL1 levels in vivo. […] Each mouse received a single administration of each amino boronic dipeptide or saline, and blood samples were withdrawn from mice 2 hours later.
Serum concentration of mouse KC/CXCL1 was determined by Quantikine enzyme-linked immunosorbent assay (ELISA; R&D Systems, Minneapolis, Minn.) according to the manufacturer's instructions. ELISA was performed in duplicate for each sample.

serum DPP-IV [2] = target: T2, serum DPP-IV (Rattus norvegicus, UniProt P14740); experiment: Serum DPP-IV inhibition in Lewis rats; format: in vivo; settings: single oral administration, 2 hours
T2 construct: from tissue; host or cells: serum of Lewis rats dosed in vivo
Experimental: (§3) Assay of serum DPP-IV inhibition in vivo.
as §1

serum DPP-IV [3] = target: T3, serum DPP-IV (Mus musculus, UniProt P28843); experiment: Serum DPP-IV inhibition in vivo in BALB/c mice after oral gavage; settings: 2 hours
T3 construct: from tissue; host or cells: serum of BALB/c mice dosed orally
Experimental: as §3, §2
Serum DPP-IV activity was determined by reaction of a 10 μl volume of serum with 0.1 mM Ala-Pro-AFC (Enzyme System Products, Dublin, Calif.) in a 100 μl volume of 50 mM HEPES/Na buffer pH 7.6, 140 mM NaCl. […] Serum DPP-IV activity was expressed as fluorescent units (FU).

ob/ob mice = experiment: Mouse oral glucose tolerance test (OGTT); format: in vivo
Experimental: Protocol for mouse oral glucose tolerance test (OGTT). The day of oral-glucose challenge was defined as day 0. […] Agents were administered by oral gavage. Mice were restricted to a diet of 50% of their individual calculated food intake from day −1 onwards. On day 0, blood glucose was measured at t−15 min. immediately followed by drug administration. At time point 0, glucose was administered by oral gavage (1 g/kg), and blood glucose was measured at time points 0, 30, 60, 120 and 240 minutes. Means±SE were calculated from the data of individual mice in drug-treatment groups 1 and 2.

Zucker fa/fa rats = experiment: Rat oral glucose tolerance test (OGTT): glucose, insulin, GLP-1; format: in vivo; settings: 10 μmol/kg oral
Description: Protocol for rat oral glucose tolerance test (OGTT). […] On days −11 to −8, rats were fitted with intra-arterial catheters under light isoflurane anesthesia. […] From 12:00 a.m.

[4] = test system: human bone marrow stromal cells; experiment: G-CSF supernatant levels in human bone marrow stromal cell cultures; format: cell-based; settings: 1 to 10^4 nM, 24 hours in vitro
Experimental: Human bone marrow stromal cell cultures. Samples of normal human bone marrow were purchased from Cambrex Bioproducts (Walkersville, Md.) and mononuclear cells were purified over Ficoll-Hypaque (Nycomed, Oslo, Norway). Human stromal layers were established by seeding 4×10^7 mononuclear cells into T75 flasks (Coming) containing 20 ml MyeloCult medium (Stem Cell Technologies, Vancouver, BC) supplemented with 10^−6 M hydrocortisone (Sigma) and incubation at 37° C. in 100% humidified 5% CO2 in air. After one week, half the medium was exchanged, and the cultures incubated for approximately one week more, after which time, a semi-confluent cell layer was formed. Stromal cells were harvested by trypsinization using standard technique and 10^5 cells/well were seeded in multi-well plates in 1 ml of fully supplemented DMEM (InVitrogen, Carlsbad, Calif.). […] Multiwell cultures without the addition of amino boronic dipeptides served as controls. […] Supernatant concentrations of human G-CSF were determined by Quantikine enzyme-linked immunosorbent assay (ELISA; R&D Systems, Minneapolis, Minn.) according to the manufacturer's instructions. […] The effect of each amino boronic dipeptide on the level of supernatant G-CSF was determined by calculating a stimulation index (SI): SI=(mean G-CSF concentration in culture with amino boronic dipeptide)/(mean G-CSF concentration in control culture).

[5] = Lewis rats, single dose, observed 5 days

T1 sequence (P27487 39-766): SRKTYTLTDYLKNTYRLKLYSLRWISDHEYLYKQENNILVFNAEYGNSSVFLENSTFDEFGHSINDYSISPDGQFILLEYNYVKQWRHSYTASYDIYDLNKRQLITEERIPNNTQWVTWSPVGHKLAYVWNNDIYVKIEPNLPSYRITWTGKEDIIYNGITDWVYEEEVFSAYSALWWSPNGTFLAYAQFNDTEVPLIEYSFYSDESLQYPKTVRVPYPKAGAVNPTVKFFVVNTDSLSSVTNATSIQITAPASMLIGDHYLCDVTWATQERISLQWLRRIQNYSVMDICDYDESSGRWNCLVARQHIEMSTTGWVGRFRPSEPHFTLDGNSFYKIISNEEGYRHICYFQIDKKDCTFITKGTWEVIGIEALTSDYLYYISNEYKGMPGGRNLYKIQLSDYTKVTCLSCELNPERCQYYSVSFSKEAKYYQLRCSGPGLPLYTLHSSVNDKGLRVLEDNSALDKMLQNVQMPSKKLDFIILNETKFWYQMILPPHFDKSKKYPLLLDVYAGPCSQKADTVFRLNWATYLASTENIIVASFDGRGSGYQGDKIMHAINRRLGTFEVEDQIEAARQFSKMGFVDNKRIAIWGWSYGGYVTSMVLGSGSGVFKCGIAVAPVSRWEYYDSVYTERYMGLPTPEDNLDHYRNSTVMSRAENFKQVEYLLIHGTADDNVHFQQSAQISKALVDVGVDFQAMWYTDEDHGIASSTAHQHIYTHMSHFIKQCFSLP
T3 sequence (P28843 37-760 limits assumed): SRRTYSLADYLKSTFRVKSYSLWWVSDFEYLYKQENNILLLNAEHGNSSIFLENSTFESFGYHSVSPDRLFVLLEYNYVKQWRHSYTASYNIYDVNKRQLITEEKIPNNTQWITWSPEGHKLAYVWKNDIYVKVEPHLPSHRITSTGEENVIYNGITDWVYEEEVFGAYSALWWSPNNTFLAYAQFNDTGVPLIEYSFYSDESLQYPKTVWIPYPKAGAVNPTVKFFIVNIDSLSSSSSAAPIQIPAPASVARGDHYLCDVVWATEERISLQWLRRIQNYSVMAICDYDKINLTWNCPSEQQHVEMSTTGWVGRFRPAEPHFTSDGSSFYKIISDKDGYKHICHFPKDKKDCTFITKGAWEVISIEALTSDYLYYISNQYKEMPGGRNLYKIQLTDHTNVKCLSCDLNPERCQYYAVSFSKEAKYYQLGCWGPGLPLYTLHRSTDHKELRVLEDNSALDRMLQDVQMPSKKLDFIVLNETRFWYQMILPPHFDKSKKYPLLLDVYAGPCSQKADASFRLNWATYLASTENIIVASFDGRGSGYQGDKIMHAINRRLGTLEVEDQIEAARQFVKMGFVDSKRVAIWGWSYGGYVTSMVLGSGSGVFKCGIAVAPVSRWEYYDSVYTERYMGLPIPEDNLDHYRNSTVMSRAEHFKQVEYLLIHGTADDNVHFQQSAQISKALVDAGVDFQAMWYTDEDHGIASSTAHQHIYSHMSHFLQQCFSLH
T2 sequence (P14740 37-767 limits assumed): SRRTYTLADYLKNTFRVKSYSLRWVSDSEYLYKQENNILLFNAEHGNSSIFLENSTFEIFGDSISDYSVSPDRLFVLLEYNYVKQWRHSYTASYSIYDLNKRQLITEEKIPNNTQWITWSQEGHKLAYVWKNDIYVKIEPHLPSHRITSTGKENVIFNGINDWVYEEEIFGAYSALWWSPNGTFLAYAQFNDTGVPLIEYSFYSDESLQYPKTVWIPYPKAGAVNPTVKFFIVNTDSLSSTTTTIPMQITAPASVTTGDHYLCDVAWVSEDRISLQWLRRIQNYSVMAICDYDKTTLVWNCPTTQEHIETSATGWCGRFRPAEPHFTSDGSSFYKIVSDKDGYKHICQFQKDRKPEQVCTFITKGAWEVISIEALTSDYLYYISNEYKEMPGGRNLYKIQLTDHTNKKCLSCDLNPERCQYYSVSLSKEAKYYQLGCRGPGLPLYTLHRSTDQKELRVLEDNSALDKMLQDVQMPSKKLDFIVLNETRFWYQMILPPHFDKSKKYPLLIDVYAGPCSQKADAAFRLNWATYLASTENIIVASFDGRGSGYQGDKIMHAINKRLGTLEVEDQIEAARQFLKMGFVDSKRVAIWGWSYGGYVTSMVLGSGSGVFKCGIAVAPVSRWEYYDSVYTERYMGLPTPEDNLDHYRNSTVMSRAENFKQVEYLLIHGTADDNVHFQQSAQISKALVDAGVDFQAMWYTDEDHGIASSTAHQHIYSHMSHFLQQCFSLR

NC(N)=NCCC[C@H](N)C(=O)N1CCC[C@H]1B(O)O [Arg-boroPro]
Persistence / reversibility of DPP-IV inhibition [1]: more rapidly reversible
MTD (maximum tolerated dose) (Lewis rats; [5]): ≧2,000 μg/kg

CC(C)[C@H](N)C(=O)N1CCC[C@H]1B(O)O [Val-boroPro]
Effect on serum levels of KC/CXCL1 (serum KC/CXCL1): stimulate increased serum levels of KC/CXCL1 in a dose-dependent manner
MTD (maximum tolerated dose) (Lewis rats; [5]): 20 µg/kg
ID50 (dose causing a 50% reduction in serum DPP-IV activity from baseline) (serum DPP-IV [2]): 0.009 mg/kg

NC(=O)CC[C@H](N)C(=O)N1CCC[C@H]1B(O)O [Gln-boroPro]
MTD (maximum tolerated dose) (Lewis rats; [5]): ≧800 μg/kg

O=C(C1CCCN1)N1CCCC1B(O)O (stereo not drawn) [Pro-boroPro]
Persistence / reversibility of DPP-IV inhibition [1]: more rapidly reversible
MTD (maximum tolerated dose) (Lewis rats; [5]): ≧2,000 μg/kg

CSCC[C@H](N)C(=O)N1CCC[C@H]1B(O)O [Met-boroPro]
MTD (maximum tolerated dose) (Lewis rats; [5]): 160 µg/kg

N[C@@H](Cc1ccccc1)C(=O)N1CCC[C@H]1B(O)O [Phe-boroPro]
Persistence / reversibility of DPP-IV inhibition [1]: more rapidly reversible

N[C@@H](CCC(=O)O)C(=O)N1CCC[C@H]1B(O)O [Glu-boroPro]
Persistence / reversibility of DPP-IV inhibition [1]: sustained DPP-IV inhibition
Inhibition of serum DPP-IV activity (serum DPP-IV [3]; 20 and 200 μg doses per mouse, oral): maximally inhibited serum DPP-IV activity
ID50 (dose required to reduce serum DPP-IV activity by 50% of baseline) (serum DPP-IV [3]; BALB/c mice, single oral dose): 1 μg/mouse
Effect on serum levels of KC/CXCL1 (serum KC/CXCL1): failed to affect serum levels of KC/CXCL1 at any of the doses tested
MTD (maximum tolerated dose) (Lewis rats; Lewis, rat, in vivo, 5 days): 15,000 μg/kg
Glucose excursion post oral glucose challenge (ob/ob mice; 1.0 μmol/kg oral, 15 minutes prior to glucose 1 g/kg): reduced
Anti-glycemic effect (area under the blood glucose curve) (ob/ob mice; single 1.0 μmol/kg dose, ANOVA): significant (P=0.0010)
Blood plasma level of GLP-1 following oral glucose challenge (Zucker fa/fa rats): increased
Blood plasma level of insulin following oral glucose challenge (Zucker fa/fa rats): increased
Blood glucose excursion after oral glucose challenge (Zucker fa/fa rats; glucose 2 g/kg): reduced

N[C@@H](CO)C(=O)N1CCC[C@H]1B(O)O [Ser-boroPro]
MTD (maximum tolerated dose) (Lewis rats; [5]): 4,000 μg/kg

C[C@H](N)C(=O)N1CCC[C@H]1B(O)O [Ala-boroPro]
MTD (maximum tolerated dose) (Lewis rats; [5]): ≧2,000 μg/kg

CC[C@H](C)[C@H](N)C(=O)N1CCC[C@H]1B(O)O [Ile-boroPro]
Persistence / reversibility of DPP-IV inhibition [1]: sustained DPP-IV inhibition
Stimulation of G-CSF levels in culture supernatants (stimulation index) [4]: stimulate increased levels of G-CSF
Effect on serum levels of KC/CXCL1 (serum KC/CXCL1): stimulate increased serum levels of KC/CXCL1 in a dose-dependent manner
MTD (maximum tolerated dose) (Lewis rats; [5]): 120 µg/kg

CC(C)C[C@H](N)C(=O)N1CCC[C@H]1B(O)O [Leu-boroPro]
Persistence / reversibility of DPP-IV inhibition [1]: more rapidly reversible
Stimulation of G-CSF levels in culture supernatants (stimulation index) [4]: stimulate increased levels of G-CSF
Effect on serum levels of KC/CXCL1 (serum KC/CXCL1): stimulate increased serum levels of KC/CXCL1 in a dose-dependent manner
MTD (maximum tolerated dose) (Lewis rats; [5]): 200 µg/kg

C[C@@H](O)[C@H](N)C(=O)N1CCC[C@H]1B(O)O [Thr-boroPro]
MTD (maximum tolerated dose) (Lewis rats; [5]): 800 µg/kg

NCCCC[C@H](N)C(=O)N1CCC[C@H]1B(O)O [Lys-boroPro]
Persistence / reversibility of DPP-IV inhibition [1]: more rapidly reversible
MTD (maximum tolerated dose) (Lewis rats; [5]): ≧2,000 μg/kg
